# Earlier results in US20010041741A1, “Composition for improvement of cellular nutrition and mitochondrial energetics” (priority 1997, published 2001).
# Where two headings read alike, the source gives them in different places.
# What was measured:
# [1] = system: animals and patients with heart failure or myocardial ischemia; conditions: L-carnitine 3-5 grams, proprionyl-1-carnitine 1.5-3.0 grams
# [2] = not given; remark: listed apart in the source
# [3] = system: patients with heart failure; conditions: creatine supplement
# [4] = system: patients suffering from congestive heart failure; conditions: oral dose of 1 gram three times per day
# [5] = system: in-patients with heart failure and on long-term furosemide therapy
structure (smiles),measurement,setting,value
"C[N+](C)(C)C[C@H](O)CC(=O)[O-] [L-carnitine, 3-hydroxy-4-N-trimethylaminobutyric acid]",Time of peak plasma concentration,following oral administration,3 h
same,T½ of plasma decay,following oral administration,3 to 4 h
same,Tolerance / adverse effects,in vivo,well tolerated and no adverse effects have been described
same,Bioavailability,oral,5-20%
same,Hemodynamics,[1],significant hemodynamic improvement
"COC1=C(OC)C(=O)C(C/C=C(\C)CC/C=C(\C)CC/C=C(\C)CC/C=C(\C)CC/C=C(\C)CC/C=C(\C)CC/C=C(\C)CC/C=C(\C)CC/C=C(\C)CCC=C(C)C)=C(C)C1=O [Ubiquinone, 2,3 dimethoxy-5 methyl-6-decaprenyl benzoquinone]",Increase of mean steady state level in plasma,[2]; after 4 days of dosing at 100 mg 3 times daily,4-7 fold
same,"Liver enzymes (LDH, SGOT)",[2]; doses of 300 mg/day,asymptomatic elevations
same,Side effects,[2]; in vivo,virtually absent
same,T½ of plasma decay,[2]; oral,34 h
same,Time of plasma level peak,[2]; oral absorption,5 to 10 h
same,Share of an oral dose taken up by the myocardium,"[2]; oral, large hepatic first pass effect",2-5%
"CN(CC(=O)O)C(=N)N [creatine, Creatine]",Cardiac ejection fraction,[3],did not increase
same,"Skeletal muscle creatine phosphate, muscle strength and endurance",[3],significantly increased
"CCC(=O)O[C@H](CC(=O)[O-])C[N+](C)(C)C [proprionyl-1-carnitine, Proprionyl-1-carnitine]",Hemodynamics,[1],significant hemodynamic improvement
"NCCS(=O)(=O)O [taurine, 2-aminoethanesulfonic acid]",Hemodynamic state and functional capacity,[4],improve both hemodynamic state and functional capacity
same,Tolerance,[4],extremely well tolerated
"Cc1ncc(C[n+]2csc(CCO)c2C)c(N)n1 [thiamine, Thiamine]",Mean left ventricular ejection fraction,"[5]; after one week, 200 mg intravenous thiamine",increased significantly
same,Increase of left ventricular ejection fraction,"[5]; after six weeks of oral thiamine supplementation, 200 mg/day",22%
same,"Diuresis, excretion of sodium and water","[5]; within two days of thiamine supplementation, versus placebo",significant diuresis with increased excretion of sodium and water
